In patent US20150352108A1, “AMINO-PYRIMIDINE COMPOUNDS AS INHIBITORS OF TBK1 AND/OR IKK EPSILON” (Alzheimer's Institute of America, priority 2009, published 2015):

Tests used:
[1] = system: TBK1-mediated phosphorylation of IRF7; assay: In-situ TBK1-mediated phosphorylation of IRF7 in HEK293T cells transfected with IRF7 and TBK1 (Western blot); format: cell-based
Procedure: HEK293T cells were cotransfected in a 10-cm dish with IRF3 and IKKε expression plasmids using Lipofectamine 2000 (Invitrogen, Carlsbad, Calif.). The following day, cells were replated at 20,000 per well in 96-well plates and treated with test compounds (compounds according to Formula I) for 20 hours. Cell lysates were prepared and analyzed using an ELISA for phospho-Ser396 (anti-IRF3 capture antibody, Santa Cruz Biotechnology, Inc., Santa Cruz, Calif.; anti-p-Ser396 IRF3 detection antibody, Cell Signaling, Danvers, Mass.). pIRF3 levels in compound treated cells were normalized to DMSO treated cells (no compound). Cell viability was assayed in a parallel set of plates to monitor cytotoxic effects of the test compounds (CellTiter-Glo, Promega, Inc., Madison, Wis.). TBK1 activity was tested by Western blotting using a phospho-specific IRF7 antibody. Similar to above, HEK293T cells were transfected with IRF7 and TBK1 expression plasmids. Cells were seeded in 12-well plates at 150,000 per well and treated overnight with test compounds. Protein lysates were prepared and processed for Western blotting followed by detection using a phosphor-Ser477/Ser479 IRF7 antibody (BD Biosciences, San Jose, Calif.)

TBK1 = molecular target: T1, TBK1 (Homo sapiens, UniProt Q9UHD2); assay: In-vitro TBK1 kinase assay ([γ33]ATP filter-plate); format: biochemical; settings: text bins; read-out: IC50 for inhibition of the kinase activity of TBK1
T1 construct: His-tag; made in house; host or cells: Sf9 insect cells
T1 sequence (Q9UHD2 1-729): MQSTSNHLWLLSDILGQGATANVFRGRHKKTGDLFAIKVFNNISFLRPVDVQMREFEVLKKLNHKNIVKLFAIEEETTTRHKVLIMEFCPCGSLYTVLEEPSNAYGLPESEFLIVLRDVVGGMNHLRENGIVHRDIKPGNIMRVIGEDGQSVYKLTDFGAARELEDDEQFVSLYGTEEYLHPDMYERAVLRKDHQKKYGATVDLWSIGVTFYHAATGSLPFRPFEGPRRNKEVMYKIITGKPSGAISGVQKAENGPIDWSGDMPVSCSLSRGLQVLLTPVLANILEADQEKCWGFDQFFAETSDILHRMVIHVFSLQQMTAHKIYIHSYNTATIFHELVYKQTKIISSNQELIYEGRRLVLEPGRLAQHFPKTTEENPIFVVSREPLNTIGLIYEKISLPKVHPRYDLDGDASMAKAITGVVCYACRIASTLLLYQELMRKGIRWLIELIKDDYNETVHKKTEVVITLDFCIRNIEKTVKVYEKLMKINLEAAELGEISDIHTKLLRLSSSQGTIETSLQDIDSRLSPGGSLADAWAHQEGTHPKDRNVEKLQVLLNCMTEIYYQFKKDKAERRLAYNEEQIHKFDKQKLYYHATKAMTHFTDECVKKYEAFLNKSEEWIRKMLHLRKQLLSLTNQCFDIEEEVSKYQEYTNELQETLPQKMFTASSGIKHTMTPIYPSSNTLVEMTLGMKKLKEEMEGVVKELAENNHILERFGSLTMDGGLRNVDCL
Method in brief: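 Phosphorylation of casein or myelin basic protein was counted by P-81 filter capture after 30-45 min reactions stopped with phosphoric acid, with counts normalized to DMSO after background subtraction. ATP was twice Km: 60 μM for TBK1 and 32 μM for IKKε, plus [γ33]ATP. Sf9-expressed His-tag enzymes were used at normal/sensitized levels of 0.1/0.02 μg/ml (TBK1) and 0.1/0.015 μg/ml (IKKε).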

[2] = system: IFN-β1 mRNA, normal PBMCs; assay: Agonist induced IFN-β1 mRNA in PBMCs from healthy donors (qRT-PCR); format: cell-based, human; settings: LMW poly(I:C), serial dilutions
Description: (§1) To determine if inhibition of IKKε and/or TBK1 modulates nucleic acid agonist induced gene expression, high molecular weight poly(I:C) (MDA5 agonist) and low weight poly(I:C) (RIG-I agonist) were electroporated into human peripheral blood mononuclear cells (PBMCs) obtained from normal donors, or low molecular weight Poly(I:C) was electroporated into PBMCs from donors that have Systemic Lupus Erythematosus (SLE). Induction of IFN-α2, IFN-β, and BLyS mRNA production was monitored by qRT-PCR.
(§2) Human PBMCs were collected from healthy donors using routine laboratory procedures. PBMCs from SLE patients were purchased from Astarte Biologics (Redmond, Wash.). The PBMCs were electroporated using Nucleofector® Kit V (Lonza, Walkersville, Md.) with 0.4 ug/mL of high molecular weight poly (I:C) (InvivoGen, San Diego, Calif.) or 0.4 ug/mL low molecular weight poly (I:C) (InvivoGen, San Diego, Calif.) and seeded into wells containing serial dilutions of Example Compound 5 (0.1% final DMSO concentration). […] RNA was quantitated using Quant-iT™ RiboGreen® RNA Assay Kit (Invitrogen, Carlsbad, Calif.). Reverse transcription and real-time PCR were performed using the QuantiTect Probe RT-PCR Kit (Qiagen, Germantown, Md.) and the 7300 Real-Time PCR System (Applied Biosytems, Foster City, Calif.). […]

BLyS mRNA, SLE PBMCs = assay: Agonist induced BLyS mRNA in PBMCs from SLE patients (qRT-PCR); format: cell-based, human; settings: LMW poly(I:C), serial dilutions
Description: as §1, §2

[3] = system: IFN-α2 mRNA, normal PBMCs; assay: Agonist induced IFN-α2 mRNA in PBMCs from healthy donors (qRT-PCR); format: cell-based, human; settings: LMW poly(I:C), serial dilutions
Description: as §1, §2

IFN-β1 mRNA, SLE PBMCs = assay: Agonist induced IFN-β1 mRNA in PBMCs from SLE patients (qRT-PCR); format: cell-based, human; settings: LMW poly(I:C), serial dilutions
Description: as §1, §2

N#Cc1cc(-c2ccnc(Nc3ccc(N4CCOCC4)cc3)n2)ccc1OC1CCOCC1 [Example 5, 5-(2-{[4-(Morpholin-4-yl)phenyl]amino}pyrimidin-4-yl)-2-(tetrahydro-2H-pyran-4-yloxy)benzaonitrile]
inhibition of TBK1-mediated phosphorylation of IRF7 [1]: inhibit | IC50 (TBK1): < 10 nM | induction of IFN-β1 mRNA [2]: potently inhibited | induction of BLyS mRNA (BLyS mRNA, SLE PBMCs): potently inhibited | induction of IFN-α2 mRNA [3]: potently inhibited | induction of IFN-β1 mRNA (IFN-β1 mRNA, SLE PBMCs): potently inhibited
